# Source: PMC5118871 (Molecular microbiology, 2016)
# T1: LmOpuCA tandem CBS domains (residues 247–371) (Listeria monocytogenes, UniProt Q9KHT9)
# T1 sequence (Q9KHT9 247-371): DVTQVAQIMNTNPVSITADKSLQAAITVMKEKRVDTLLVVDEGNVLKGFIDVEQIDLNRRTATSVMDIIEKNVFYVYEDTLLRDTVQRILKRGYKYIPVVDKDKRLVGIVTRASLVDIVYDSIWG
# Columns and labels:
# [1] = molecular target: T1, LmOpuCA tandem CBS domains (residues 247–371); test: X-ray crystal structure, […] Å, crystal soaked with c-di-AMP; format: binding; conditions: one c-di-AMP per dimer, at the dimer interface; pH 9.0
# crystal structure = molecular target: the molecule itself; test: crystal structure
Molecule,"X-ray crystal structure, 2.9 Å, crystal soaked with c-di-AMP [1]",stoichiometry N (crystal structure)
Nc1ncnc2c1ncn2[C@@H]1O[C@@H]2COP(=O)(O)O[C@H]3[C@@H](O)[C@H](n4cnc5c(N)ncnc54)O[C@@H]3COP(=O)(O)O[C@H]2[C@H]1O [c-di-AMP],We observed clear electron density for one c-di-AMP molecule bound to the OpuCA dimer,–
"L. monocytogenes OpuCA (LmOpuCA) tandem CBS domains (residues 247–371) (domain or fragment, UniProt Q9KHT9 247-371, looked up) DVTQVAQIMNTNPVSITADKSLQAAITVMKEKRVDTLLVVDEGNVLKGFIDVEQIDLNRRTATSVMDIIEKNVFYVYEDTLLRDTVQRILKRGYKYIPVVDKDKRLVGIVTRASLVDIVYDSIWG",–,2
